{"source": "patent US11091809B2", "about": "“Molecular diagnostic test for cancer” (ALMAC DIAGNOSTICS LIMITED, priority 2012, dated 2021)", "origin": "cited, not measured here", "key": {"[1]": {"tested_on": "ovarian cancer", "settings": "bevacizumab monotherapy"}, "[2]": {"tested_on": "renal cancer", "settings": "bevacizumab monotherapy"}, "[3]": {"tested_on": "primary peritoneal carcinoma, fallopian tube carcinoma, and epithelial ovarian carcinoma", "settings": "ICON7"}, "[4]": {"tested_on": "rectal cancer", "settings": "bevacizumab monotherapy"}}, "data": [{"substance": "bevacizumab: recombinant humanised version of a murine anti-human VEGF monoclonal antibody", "values": [{"measurement": "patients showing partial regression", "setting": "[1]", "result": 21, "unit": "%"}, {"measurement": "patients showing partial regression", "setting": "[2]", "result": 10, "unit": "%"}, {"measurement": "hazard ratio for death", "setting": "[3]; bevacizumab group, patients at high risk of progression (FIGO stage IV or stage III with greater than 1.0 cm residual disease after debulking surgery)", "result": 0.64}, {"measurement": "hazard ratio for progression-free survival", "setting": "[3]; standard chemotherapy (carboplatin and paclitaxel) and bevacizumab vs standard chemotherapy", "result": 0.81}, {"measurement": "patients showing partial regression", "setting": "[4]", "result": 33, "unit": "%"}]}]}
